Results as given in patent publication US20230389546A1, “ANTIMICROBIAL COMPOSITION” (The Procter & Gamble Company, priority 2022, published 2023).

Assays:
Gram Positive bacteria = assay: Surface Antimicrobial Kill Testing, normalized to triclosan internal standard, gram positive; format: cell-based, S. aureus (Sa); settings: for antimicrobial benefit in words, gram-positive: Table 2B formulas
Experimental: (§1) Inoculum is prepared by streaking microorganism onto a Tryptic Soy Agar (TSA) plate and incubating for 24 h at 33° C. Plated bacteria is resuspended in saline until the transmittance percentage falls within the accepted range for ˜10^8 cfu/mL. For K. pneumonia (Kp) and P. aeruginosa (Pa), this is 31.00-33.00% T. For S. aureus (Sa) this is 23.00-25.00% T. A 10× concentration is made by spinning down the prepared inoculum, removing the supernatant saline from the bacterial pellet, then resuspending the pellet in 1/10th of the original volume of saline. The final inoculum is prepared with 5% of “soil” in the form of Fetal Bovine Serum (FBS). A 18×18 mm sterile glass coverslip is placed into an appropriate container (e.g., petri dish). 20 μL of prepared inoculum is added to the glass coverslip. Inoculum is then air-dried for 30 minutes in a 36° C. incubator. After drying, 40 μL of test sample is added on top of the dried inoculum. This is incubated at room temperature for the desired contact time. 5 mL of neutralizing media (Modified Letheen Broth+Tween+Lecithin (MLBTL)) is added to the coverslip and shaken on an orbital shaker for 5 minutes to ensure proper neutralization and extraction. Viability is then assessed of the neutralized and extracted sample by traditional/alternative microbiological techniques. The normalized antimicrobial activity reported in the performance examples below was generated from detection time data obtained as described in the Surface Antimicrobial Kill Test Method. To account for day-to-day variability an internal standard was tested with each series. The internal standard was a composition of 0.25 wt % Triclosan, Sigma Aldrich (St. Louis, MO, USA; CAS #3380-34-5, 97.0-103.0% (active substance, GC)), 50 wt % DMSO, and 49.75 wt % H2O, with a final solution pH of 7.7. Normalized activity is reported following the equation 1 below. Normalized Activity=(αΔDT−βΔDT)/(γΔDT−βΔDT) equation 1. where, αΔDT is the average detection time of the antimicrobial compound, and γΔDT is the average detection time of the reference triclosan internal standard, and βΔDT is the average detection time of the background unperturbed bacteria. Modified amino acids of the present disclosure were tested as aqueous solutions in the Surface Antimicrobial Kill Testing Method above. To prepare test solutions modified amino acids were first dissolved in the appropriate solvent. Second the selected surfactant is added to the mixture. After vortex (1 min, Vortex-2 Genie, vortex speed 8) mixing, the samples were then diluted with ½ portion of reverse osmosis water (RO water, Millipore Direct-Q™, pH 6). The aqueous solution was then vortexed (1 min, Vortex-2 Genie, vortex speed 8), to which the second ½ portion of water is added. The pH of the solution was then adjusted to the target pH using either 1N HCl, Glacial Acetic Acid, or 1N NaOH. The final solution was then vortexed (1 min, Vortex-2 Genie, vortex speed 8). An example batch sheet is provided below in Table 1. In Performance Examples 1-5 below, formulations comprising solvent, surfactant, and antimicrobial agents according to the present disclosure (e.g., based on modified amino acid amides), are evaluated via microbial surface kill tests according to the Surface Antimicrobial Kill Testing Method provided above. After treatment, microbial growth is referenced and reported to a triclosan sample and unaltered microbes according to the Normalization of Antimicrobial Activity provided above.

Gram Negative bacteria = assay: Surface Antimicrobial Kill Testing, normalized to triclosan internal standard, gram negative; format: cell-based, K. pneumonia (Kp) / P. aeruginosa (Pa); settings: for antimicrobial benefit in words, gram-negative: Table 2B formulas
Experimental: as §1

[1] = Table 2B, compound 0.5 wt %, DPGME 5 wt %, Surfonic L24-9 1 wt %, 0.1M Acetic acid buffer pH 4.5
[2] = Table 3B, compound 0.5 wt %, DPGME 5 wt %, Surfonic L24-9 1 wt %, 0.1M Acetic acid buffer pH 4.5
[3] = 0.5 wt %, 5 wt % DPGME, water, pH 4.5, EH6 1 wt %
[4] = 0.5 wt %, 5 wt % DPGME, water, pH 4.5, Miranol Ultra 1 wt %
[5] = 0.5 wt %, 5 wt % DPGME, water, pH 4.5, Plantaren 2000 1 wt %
[6] = 0.5 wt %, 5 wt % DPGME, water, pH 4.5, Surfonic L24-9 1 wt %
[7] = 0.5 wt %, 5 wt % DPGME, water, pH 4.5, Tween 80 1 wt %
[8] = 0.5 wt %, 5 wt % DPGME, water, pH 9, Miranol Ultra 1 wt %
[9] = 0.5 wt %, 5 wt % DPGME, water, pH 9, SLS 1 wt %
[10] = 0.5 wt %, 5 wt % DPGME, water, pH 9, Surfonic L24-9 1 wt %
[11] = Table 4, variety of surfactants

## CN(C)C(=O)[C@H](N)Cc1ccccc1 [Comparative Example C1, reference compound]
Gram Positive bacteria
  antimicrobial benefit in words, gram-positive: fail to show any meaningful benefit
Gram Positive bacteria; [1]
  Gram Positive Referenced Microbial Activity: 0.1
Gram Negative bacteria
  antimicrobial benefit in words, gram-negative: fail to show any meaningful benefit
Gram Negative bacteria; [1]
  Gram Negative Referenced Microbial Activity: 0.2

## CCCCCCNC(=O)[C@@H](N)Cc1c[nH]c2ccccc12 [Synthetic Example 1]
Gram Positive bacteria; [2]
  Gram Positive Referenced Microbial Activity: 0.3
Gram Negative bacteria; [2]
  Gram Negative Referenced Microbial Activity: 2.2

## CCCCCCCCNC(=O)[C@@H](N)Cc1c[nH]c2ccccc12 [Synthetic Example 2]
Gram Positive bacteria; [3]
  Gram Positive Referenced Microbial Activity: 1.6
Gram Positive bacteria; [4]
  Gram Positive Referenced Microbial Activity: 0.7
Gram Positive bacteria; [5]
  Gram Positive Referenced Microbial Activity: 1.3
Gram Positive bacteria; [6]
  Gram Positive Referenced Microbial Activity: 1.0
Gram Positive bacteria; [7]
  Gram Positive Referenced Microbial Activity: 1.2
Gram Positive bacteria; [8]
  Gram Positive Referenced Microbial Activity: 0.2
Gram Positive bacteria; [9]
  Gram Positive Referenced Microbial Activity: 0.2
Gram Positive bacteria; [10]
  Gram Positive Referenced Microbial Activity: 0.2
Gram Positive bacteria; [2]
  Gram Positive Referenced Microbial Activity: 1.0
Gram Positive bacteria; [11]
  antimicrobial efficacy in words, gram-positive: shows antimicrobial efficacy
Gram Positive bacteria; compound 0.5 wt %, Surfonic L 24-9 1 wt %, 5 wt % DPGME, water, pH 4.5, aged 14 days
  Gram Positive Referenced Microbial Activity: 1.1
Gram Positive bacteria; compound 0.5 wt %, Surfonic L 24-9 1 wt %, 5 wt % DPGME, water, pH 4.5, not aged
  Gram Positive Referenced Microbial Activity: 1.0
Gram Negative bacteria; [3]
  Gram Negative Referenced Microbial Activity: ≥4.9
Gram Negative bacteria; [4]
  Gram Negative Referenced Microbial Activity: ≥4.9
Gram Negative bacteria; [5]
  Gram Negative Referenced Microbial Activity: ≥4.9
Gram Negative bacteria; [6]
  Gram Negative Referenced Microbial Activity: 2.5
Gram Negative bacteria; [7]
  Gram Negative Referenced Microbial Activity: ≥4.9
Gram Negative bacteria; [8]
  Gram Negative Referenced Microbial Activity: 0.1
Gram Negative bacteria; [9]
  Gram Negative Referenced Microbial Activity: 0.0
Gram Negative bacteria; [10]
  Gram Negative Referenced Microbial Activity: 0.7
Gram Negative bacteria; [2]
  Gram Negative Referenced Microbial Activity: 2.5
Gram Negative bacteria; Table 4, gram negative and gram positive
  pH cutoff of antimicrobial efficacy: cutoff at pH 9
Gram Negative bacteria; [11]
  antimicrobial efficacy in words, gram-negative: shows antimicrobial efficacy

## CCCCCCCCCNC(=O)[C@@H](N)Cc1c[nH]c2ccccc12 [Synthetic Example 3]
Gram Positive bacteria; [2]
  Gram Positive Referenced Microbial Activity: 0.3
Gram Negative bacteria; [2]
  Gram Negative Referenced Microbial Activity: 2.2

## CCCCCCCCNC(=O)[C@@H](N)Cc1ccccc1 [Synthetic Example 5]
Gram Positive bacteria
  antimicrobial benefit in words, gram-positive: shows improvement against gram-negative and gram-positive bacteria
Gram Positive bacteria; [1]
  Gram Positive Referenced Microbial Activity: 0.7
Gram Negative bacteria
  antimicrobial benefit in words, gram-negative: demonstrate meaningful gram-negative activity
Gram Negative bacteria; [1]
  Gram Negative Referenced Microbial Activity: ≥3.9

## CCN(C(=O)C(N)Cc1ccccc1)C1CCCCC1 (stereo not drawn) [Synthetic Example 6]
Gram Positive bacteria; [1]
  Gram Positive Referenced Microbial Activity: 0.2
Gram Negative bacteria
  antimicrobial benefit in words, gram-negative: demonstrate meaningful gram-negative activity
Gram Negative bacteria; [1]
  Gram Negative Referenced Microbial Activity: 2.7

## CCCCCCCCCCCCNC(=O)[C@@H](N)Cc1ccccc1 [Synthetic Example 7]
Gram Positive bacteria
  antimicrobial benefit in words, gram-positive: fail to show any meaningful benefit
Gram Positive bacteria; [1]
  Gram Positive Referenced Microbial Activity: 0.1
Gram Negative bacteria
  antimicrobial benefit in words, gram-negative: fail to show any meaningful benefit
Gram Negative bacteria; [1]
  Gram Negative Referenced Microbial Activity: 0.1
